Source: patent US20190038784A1, “TAU PET IMAGING LIGANDS” (Janssen Pharmaceutica NV, priority 2016, published 2019)

Key:
[1] = target: T1, extracted human tau (aggregated tau, PHF) (Homo sapiens, UniProt P10636); test: Competitive radioligand binding assay with [3H]-T808 on aggregated tau preps from human AD brain; settings: for Ki: mean of at least two measurements with SD, calculated from IC50, KD PHF 6.275 nM, 10 nM RL; for IC50: radiolabel displacement of [3H]-T808, 10 nM, read-out: pIC50, binding to extracted human tau (converted)
T1 construct: Tau Ki; other: mean of at least two measurements with SD; other: radiolabel displacement of [3H]-T808, 10 nM
T1 sequence (P10636 623-695 limits assumed): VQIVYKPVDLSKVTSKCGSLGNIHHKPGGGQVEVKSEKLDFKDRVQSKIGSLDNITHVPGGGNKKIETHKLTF
Procedure: (§1) Enriched aggregated tau fractions were prepared according to a slightly modified version of the protocol described by Greenberg and Davies (Greenberg S G, Davies P. A preparation of Alzheimer paired helical filaments that display distinct tau proteins by polyacrylamide gel electrophoresis. Proc. Natl. Acad. Sci. 1990; 87: 5827-5831) using human AD brain tissue (occipital cortex with high tau fibril load). Briefly, frozen human AD brain samples (˜10 g) were homogenized with 10 vol of cold homogenization buffer (10 mM Tris, 800 mM NaCl, 1 mM EGTA, 10% sucrose, pH 7.4 containing PhosSTOP phosphatase and cOmplete EDTA-free protease inhibitor (Roche, Vilvoorde, Belgium)) on ice. After centrifugation at 27 000×g for 20 min at 4° C. the supernatant was recovered and 1% (w/v) N-lauroylsarcosine and 1% (v/v) 2-mercaptoethanol were added. The N-lauroylsarcosine/2-mercaptoethanol supernatant was incubated for 2 h at 37° C. while shaking on an orbital shaker. Subsequently, ultracentrifugation at 108 000×g for 1.5 h at room temperature enriched aggregated tau in the pellet. Supematant was removed and the pellet was carefully rinsed twice with a small amount of TBS (50 mM Tris, 150 mM NaCl, pH 7.4). Finally, the aggregated tau pellet was recovered in TBS and resuspended to ensure sample homogeneity. Small aliquots were stored at −80° C.
(§2) The competitive radioligand binding assays measure the binding of a radiolabeled reference ligand in the presence of a dose response concentration range of test compounds.
(§3) Briefly, aggregated tau preps were diluted to 100 μg protein/ml in PBS buffer with 5% ethanol. In a 96-well format, ^3H-T808 (specific activity; 32.97 Ci/mmol) was added at a final concentration of 10 nM to increasing amounts of test compound in the presence of 20 μg protein of aggregated tau prep. Nonspecific binding was defined as the number of counts remaining in the presence of 50 μM Thioflavin T (common beta sheet binder). After 2 h incubation at room temperature, the unbound ligand is removed by filtration of the binding mixtures over GF/B glass filters using a Filtermate 96 harvester instrument (Perkin Elmer, Zaventem, Belgium). The filters were washed three times with PBS buffer containing 20% ethanol. After overnight drying of the filter plate, Microscint O liquid (Perkin Elmer) was added and the amount of radiolabeled ligand bound to the fibrils is measured by liquid scintillation counting in a Topcount instrument (Packard Instrument Company, Connecticut, USA)
(§4) Values for half-maximal inhibitory concentration (IC50) were determined from displacement curves of at least two independent experiments using GraphPad Prism software (GraphPad Software, San Diego, Calif.).

[2] = system: extracted human tau (aggregated tau, PHF); test: as above; settings: Aβ Ki versus Tau Ki
Procedure: as §1, §2, §3, §4

[3] = target: T2, extracted human amyloid-beta aggregates (Homo sapiens, UniProt P05067); test: Competitive radioligand binding assay with [3H]-AV-45 on amyloid plaque preps from human AD brain; settings: for Ki: calculated from IC50, KD Aβ 7.85 nM for 3H-AV45, 10 nM RL; for binding to extracted human amyloid-beta aggregates: up to 10 μM, radiolabel displacement of [3H]-AV-45
T2 construct: from tissue; host or cells: human AD brain, occipital cortex
T2 sequence (P05067 672-713 limits assumed): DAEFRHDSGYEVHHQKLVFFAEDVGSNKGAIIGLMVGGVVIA
Procedure: Enriched aggregated β-amyloid preps were prepared from frozen human AD brain samples (10 g—occipital cortex with high amyloid plaques load) that were homogenized with 7-fold vol of cold homogenization buffer (250 mM sucrose, 20 mM Tris base, 1 mM EDTA, 1 mM EGTA and PhosSTOP phosphatase and cOmplete EDTA-free protease inhibitor) on ice. After centrifugation at 27 000×g for 20 min at 4° C. cell debris was removed. Supematant containing amyloid plaques was aliquoted and stored at −80° C.
as §2, §4
To determine compound binding to aggregated β-amyloid a similar assay was put in place but with some minor modifications. Briefly, amyloid preps were diluted to 150 μg protein/ml in 50 mM Tris with 0.1% BSA and 5% ethanol. ^3H-AV-45 (florbetapir-specific activity; 45.95 Ci/mmol) was added at a final concentration of 10 nM to increasing amounts of test compound in the presence of 30 μg protein of amyloid plaques prep. Nonspecific binding was determined in the presence of 500 μM Thioflavin T. After 150 min incubation at room temperature, the binding mixtures were filtered over GF/B glass filters. The filters were washed three times with PBS buffer containing 20% ethanol. Subsequent steps were identical to those described for the aggregated tau preps.

[4] = system: neurofibrillary tangles (NFTs) in AD brain slices; test: Autoradiography blocking study of [18F]Co. No. 1 on human AD brain slices; assay type: binding; settings: 1 μM cold blocker, Braak stage V-VI slices
Procedure: Air-dried frozen, 20-μm-thick slices of an AD-patient (Braak stage V-VI) were incubated for 60 min with [^18F]Co. No. 1 (7.4 kBq/500 JpL per section) and subsequently washed with mixtures of phosphate buffered saline (PBS) and ethanol as described elsewhere (Xia C F, Arteaga J, Chen G, et al. [(18)F]T807, a novel tau positron emission tomography imaging agent for Alzheimer's disease. Alzheimers Dement. 2013, 1-11, doi: 10.1016/i.ialz.2012.11.008). To assess specificity of binding, slices were incubated with tracer in the presence of 1 μM of authentic T808 or […].
No. 1. After drying, slices were exposed to a phosphor storage screen (super-resolution screen, Perkin Elmer). Screens were read in a Cyclone Plus system (Perkin Elmer, Waltham, Mass., U.S.A.) and analyzed using Optiquant software. Results are expressed as digital light units per square mm (DLU/mm^2). Adjacent AD slices were immunostained with anti-tau (AT8) and anti-Aβ antibodies (AG8), to correlate with [^18F]Co. No. 1 binding. […] The binding pattern corresponds well with the Tau pathology as detected with AT8 IHC on adjacent slides (see FIG. 1). To assess the specificity of the tracer binding to neurofibrillary tangles (NFTs), blocking studies with authentic Co. No. 1 and T808 were performed. […] Blocking percentages were calculated as (DLU/mm^2 in the presence of […] blocker)/(DLU/mm^2 tracer only).

[5] = MicroPET imaging, Wistar rats; assay type: in vivo; settings: baseline scan, whole brain, IV 50 MBq
Procedure: Dynamic 120 min microPET scans were performed on a Focus™ 220 microPET scanner (Concorde Microsystems, Konxville, Tenn., USA) on three female Wistar rats simultaneously, which were kept under gas anesthesia during the whole procedure (2.5% isoflurane in 02 at 1 L/min flow rate). The head of the animals was placed central, in the field of view, of the microPET scanner. Scans were acquired in list mode and acquisition data were Fourier rebinned in 24 time frames (4×15 s, 4×60 s, 5×180 s, 8×300 s, 3×600 s). Data, which were 3D maximum a posteriori (3D-MAP) reconstructed, were manually aligned with a rat brain [^18F]FDG template in Paxinos coordinates using an affine transformation, to allow predefined volumes of interest (VOIs) analysis. Time-activity curves (TACs) of the whole brain were generated using VOIs with PMOD software (v 3.2, PMOD Technologies Ltd., Zdtrich, Switzerland). Radioactivity concentration in the brain was expressed as standardized uptake value (SUV, calculated as (radioactivity in Bq in brain/mL)/(total injected dose (Bq)/body weight in g)) as a function of time after tracer injection. Scans were started immediately after IV injection of 50 MBq [^18F]Co. No. 1 or [^18F]T807 (n=3/tracer). […]

[6] = MicroPET imaging, rhesus monkey (experiment 1); assay type: in vivo, rhesus monkey (macaca mulatta); settings: baseline scan
Procedure: A dynamic 120-min microPET scan with [^18F]Co. No. 1 or [^18F]T807 was performed on a Focus™ 220 microPET scanner (Concorde Microsystems, Knoxville, Tenn., USA) on, respectively, a female rhesus monkey (9 year-old macaca mulatta, 5.3 kg) and a male rhesus monkey (6 year-old macaca mulatta, 7.6 kg), that was sedated with ketamine (Ketalar®) and xylazine (Rompun®) via intramuscular (IM) injection. During scanning the monkey received repeatedly an additional dose of ketamine/xylazine via IV injection. The O2 saturation in the blood, the breathing frequency and heartrate were monitored during the entire experiment. The head of the animal was placed central, in the field of view, of the microPET scanner. Scans were acquired in list mode and acquisition data were Fourier rebinned in 24 time frames (4×15 s, 4×60 s, 5×180 s, 8×300 s, 3×600 s). Data were reconstructed using a 3D maximum a posteriori (3D-MAP) iterative reconstruction. TACs of the whole brain, corpus callosum, cerebellum and entorhinal cortex were generated using VOIs with PMOD software. Radioactivity concentration in the brain is expressed as SUV as a function of time after tracer injection (FIGS. 5a and 5b). Scans were started immediately after IV injection of 185 MBq of [^18F]Co. No. 1 of [^18F]T807 via the vena saphena of the right leg. […]

[7] = MicroPET imaging, rhesus monkey (experiment 2); assay type: in vivo, rhesus monkey (Macaca mulatta); settings: baseline scan
Procedure: A dynamic 120-min μPET scan with [^18F]Co. No. 1 or [^18F]T807 was performed with a Focus 220 μPET scanner on a male rhesus monkey (6 y-old Macaca mulatta, 7.6 kg), that was sedated with ketamine (Ketalar®) and xylazine (Rompun®) via intramuscular (IM) injection. During scanning the monkey received repeatedly an additional dose of ketamine/xylazine via i.v. injection. O2 saturation in blood, breathing frequency and heartbeat frequency were monitored during the entire experiment. The head of the animal was placed central in the field of view of the μPET scanner. Scans were acquired in list mode and Fourier rebinned in 24 time frames (4×15 s, 4×60 s, 5×180 s, 8×300 s, 3×600 s). Data were reconstructed using a 3D maximum a posteriori (3D-MAP) iterative reconstruction. TACs of the whole brain were generated using VOIs with PMOD software. Radioactivity concentration in the brain is expressed as SUV as a function of time after tracer injection. Scans were started immediately after i.v. injection of 185 MBq of [^18F]Co. No. 1 or [^18F]T807 via the vena saphena of the right leg. Results of the 120-min baseline scan of [^18F]Co. No. 1 and [^18F]T807 are shown in FIGS. 7a and 7b, respectively. […] TACs of the baseline scan of [^18F]T807 in the brain show a slower initial brain uptake (SUV value of ˜1.3, time to peak uptake: 15 min) and wash-out (FIG. 8). […]

Row | SMILES | Ki [1] [µM] | IC50 [1] [µM] | Selectivity (ratio) [2] | Ki [3] [µM] | binding to extracted human amyloid-beta aggregates [3] | inhibition of [18F]Co. No. 1 binding to AD brain slices [4] [%] | initial brain uptake, SUV value in the brain [5] | wash-out from brain [6] | initial brain uptake, SUV value ([6]; brain, IV 185 MBq) | time to peak uptake ([7]; brain) [min] | initial brain uptake, SUV value ([7]; i.v. 185 MBq, male monkey)
1 | Cc1cnccc1Nc1ccc2nc(F)ccc2n1 [Co. No. 2] | 0.0135 ± 0.0022 | 0.0316 | >325 | > 4.4 | no measurable binding | – | – | – | – | – | –
2 | Cc1cc(Nc2ccc3nc(F)ccc3n2)ccn1 [Co. No. 1] | 0.0079 ± 0.0025 | 0.02 | >540 | > 4.4 | no measurable binding | 99 | – | – | – | – | –
3 | Fc1ccc(-c2ccc3c(c2)[nH]c2ccncc23)cn1 [[^18F]T807, 7-(6-fluoropyridin-3-yl)-5H-pyrido[4,3-b]indole] | – | – | – | – | – | – | ~1.6 | slower wash-out | ~1.3 | 15 | ~1.3

Further lines, results first:

Row | Ki [1] [µM] | IC50 [1] [µM] | Selectivity (ratio) [2] | Ki [3] [µM] | binding to extracted human amyloid-beta aggregates [3] | inhibition of [18F]Co. No. 1 binding to AD brain slices [4] [%] | initial brain uptake, SUV value in the brain [5] | wash-out from brain [6] | initial brain uptake, SUV value ([6]; brain, IV 185 MBq) | time to peak uptake ([7]; brain) [min] | initial brain uptake, SUV value ([7]; i.v. 185 MBq, male monkey) | SMILES
4 | 0.0113 ± 0.0028 | 0.0251 | >380 | > 4.4 | no measurable binding | – | – | – | – | – | – | Fc1ccc2nc(Nc3ccncc3)ccc2n1 [Co. No. 3]
5 | – | – | – | – | – | 98 | – | – | – | – | – | FCCC1CCN(c2ccn3c(n2)nc2ccccc23)CC1 [T808, 2-[4-(2-fluoroethyl)-1-piperidinyl]-pyrimido[1,2-a]benzimidazole, reference compound]
